Common to all, as to test: relative viability (nuclei count vs DMSO), 5 days (fraction); higher = more cells survive
Compound in the experiment “Selisistat + Luminespib”: C1CC(C2=C(C1)C3=C(N2)C=CC(=C3)Cl)C(=O)N [Selisistat] + CCNC(=O)c1noc(-c2cc(C(C)C)c(O)cc2O)c1-c1ccc(CN2CCOCC2)cc1 [Luminespib] (partner 0.01 µM)
The essentials: (§1)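 Relative viability was taken as the ratio of nuclei in treated wells to nuclei in vehicle wells. Lung cancer cell lines in 1536-well plates received compounds by pin tool one day after seeding, either one drug alone or a fixed anchor-drug dose plus five library-drug doses (not always all listed) in √10 steps. Nuclei were counted on 4× images after 5 days of treatment, and values are medians of duplicate plates.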

Compound in the experiment “Selisistat + Alpelisib”: C1CC(C2=C(C1)C3=C(N2)C=CC(=C3)Cl)C(=O)N [Selisistat] + Cc1nc(NC(=O)N2CCC[C@H]2C(N)=O)sc1-c1ccnc(C(C)(C)C(F)(F)F)c1 [Alpelisib] (partner 2 µM)
A digest of the protocol:
as §1

Compound in the experiment “Selisistat + Palbociclib”: C1CC(C2=C(C1)C3=C(N2)C=CC(=C3)Cl)C(=O)N [Selisistat] + CC(=O)c1c(C)c2cnc(Nc3ccc(N4CCNCC4)cn3)nc2n(C2CCCC2)c1=O [Palbociclib] (partner 0.5 µM)
The essentials:
as §1

Compound in the experiment “Selisistat + Phenformin”: C1CC(C2=C(C1)C3=C(N2)C=CC(=C3)Cl)C(=O)N [Selisistat] + N=C(N)NC(=N)NCCc1ccccc1 [Phenformin] (partner 250 µM)
The essentials:
as §1

Among the data in the supplement of paper PMC10307832 are relative viability values, retold here.

Consider UMC-11, for which the relative viability with Selisistat + Luminespib (first compound 0.4 µM) was 1.03; with Selisistat + Luminespib (first compound 1.265 µM) it was 0.931; in the experiment with Selisistat + Luminespib (first compound 4 µM), 0.896; with Selisistat + Luminespib (first compound 12.65 µM), 1.09; with Selisistat + Luminespib (first compound 40 µM), 1; with Selisistat + Alpelisib (first compound 0.4 µM), 1.19. The relative viability is 0.99 in the experiment with Selisistat + Alpelisib (first compound 1.265 µM); 1.04 with Selisistat + Alpelisib (first compound 4 µM); 0.994 with Selisistat + Alpelisib (first compound 12.65 µM); 0.887 in the experiment with Selisistat + Alpelisib (first compound 40 µM); 0.348 in the experiment with Selisistat + Palbociclib (first compound 0.4 µM); 0.34 with Selisistat + Palbociclib (first compound 1.265 µM). Besides, the relative viability with Selisistat + Palbociclib (first compound 4 µM) was determined as 0.299; in the experiment with Selisistat + Palbociclib (first compound 12.65 µM), 0.319; with Selisistat + Palbociclib (first compound 40 µM), 0.349; in the experiment with Selisistat + Phenformin (first compound 0.4 µM), 0.337; in the experiment with Selisistat + Phenformin (first compound 1.265 µM) it was 0.303; in the experiment with Selisistat + Phenformin (first compound 4 µM), 0.302. Besides, the relative viability turned out to be 0.288 in the experiment with Selisistat + Phenformin (first compound 12.65 µM) and 0.303 with Selisistat + Phenformin (first compound 40 µM).
